Data reported in PubChem BioAssay AID330 (DTP/NCI, 2004).
Values joined by “and” are separate entries in the source; they are usually repeats but may differ in a detail not shown here. Equal values may be shown once. Inconclusive results and toxic doses are left out.

Test system: P388 leukemia ip, CD2F1 mice, survival T/C
Test: NCI In Vivo Anticancer Drug Screen. Data for tumor model P388 Leukemia (intraperitoneal) in CD2F1 (CDF1) mice
Conditions: endpoint: median survival time, higher = longer survival
Method in brief: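 Mice carrying the transplanted tumor received test compound or vehicle. Survival was recorded in each group, and the value is the treated-group measurement divided by that of the vehicle-treated control group.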

[1] = dose: 50.0 mg/kg/injection, schedule: Q01DX009 (ip), vehicle: saline
[2] = dose: 50.0 mg/kg/injection, schedule: Q01DX005 (ip), vehicle: saline with Tween-80
[3] = dose: 100.0 mg/kg/injection, schedule: Q01DX005 (ip), vehicle: saline with Tween-80
[4] = dose: 50.0 mg/kg/injection, schedule: Q01DX009 (ip), vehicle: saline with Tween-80
[5] = dose: 100.0 mg/kg/injection, schedule: Q01DX009 (ip), vehicle: saline with Tween-80
[6] = dose: 200.0 mg/kg/injection, schedule: Q01DX009 (ip), vehicle: saline with Tween-80
[7] = dose: 100.0 mg/kg/injection, schedule: Q01DX009 (ip), vehicle: saline
[8] = dose: 200.0 mg/kg/injection, schedule: Q01DX009 (ip), vehicle: saline
[9] = dose: 200.0 mg/kg/injection, schedule: Q01DX005 (ip), vehicle: saline with Tween-80
[10] = dose: 50.0 mg/kg/injection, schedule: Q01DX005 (ip), vehicle: Klucel (hydroxypropylcellulose) (HPC)
[11] = dose: 100.0 mg/kg/injection, schedule: Q01DX005 (ip), vehicle: Klucel (hydroxypropylcellulose) (HPC)
[12] = dose: 200.0 mg/kg/injection, schedule: Q01DX005 (ip), vehicle: Klucel (hydroxypropylcellulose) (HPC)
[13] = dose: 60.0 mg/kg/injection, schedule: Q01DX005 (ip), vehicle: saline with Tween-80
[14] = dose: 120.0 mg/kg/injection, schedule: Q01DX005 (ip), vehicle: saline with Tween-80
[15] = dose: 240.0 mg/kg/injection, schedule: Q01DX005 (ip), vehicle: saline with Tween-80
[16] = dose: 60.0 mg/kg/injection, schedule: Q01DX005 (ip), vehicle: Klucel (hydroxypropylcellulose) (HPC)
[17] = dose: 120.0 mg/kg/injection, schedule: Q01DX005 (ip), vehicle: Klucel (hydroxypropylcellulose) (HPC)
[18] = dose: 240.0 mg/kg/injection, schedule: Q01DX005 (ip), vehicle: Klucel (hydroxypropylcellulose) (HPC)

`O=C(CC(O)(C(F)(F)F)C(F)(F)F)c1ccc(Cl)cc1` was tested, and the T/C (dose: 50.0 mg/kg/injection, schedule: Q04DX003 (ip), vehicle: saline with Tween-80) was 104 % of control, the T/C (dose: 100.0 mg/kg/injection, schedule: Q04DX003 (ip), vehicle: saline with Tween-80) was 100 % of control and the T/C (dose: 200.0 mg/kg/injection, schedule: Q04DX003 (ip), vehicle: saline with Tween-80) was 104 % of control.

With `c1coc(CNC2=NCCCCC2)c1` the T/C (dose: 12.5 mg/kg/injection, schedule: Q01DX009 (ip), vehicle: saline) was 108 % of control, the T/C (dose: 25.0 mg/kg/injection, schedule: Q01DX009 (ip), vehicle: saline) was 108 % of control and the T/C [1] was 102 % of control.

For `O=C1NC(=O)C2C3OC(C12)C1C2C(=O)NC(=O)C2C31` (centres undefined), the T/C [2] was 105 % of control and the T/C [3] was 104 % of control.

`COc1cc2c(c(OC)c1O)-c1ccc(OC)c(=O)cc1[C@@H](NC(C)=O)CC2` was tested, and the T/C (dose: 10.0 mg/kg/injection, schedule: Q01DX009 (ip), vehicle: Klucel (hydroxypropylcellulose) (HPC)) was 150 % of control and 175 % of control.

`COC1CC(OC2C(C)OC(OC3C(C)OC(OC4CCC5(C)C(=CCC6(O)C5CC(OC(=O)c5ccc(O)cc5)C5(C)C(O)(C(C)=O)CCC65O)C4)CC3OC)CC2OC)OC(C)C1O` (centres undefined) (tested in a mixture with another compound) was tested, and the T/C (dose: 12.5 mg/kg/injection, schedule: Q01DX005 (ip), vehicle: distilled water + Tween-80 + alcohol) was 100 % of control, the T/C (dose: 25.0 mg/kg/injection, schedule: Q01DX005 (ip), vehicle: distilled water + Tween-80 + alcohol) was 94 % of control and the T/C (dose: 50.0 mg/kg/injection, schedule: Q01DX005 (ip), vehicle: distilled water + Tween-80 + alcohol) was 101 % of control. The T/C (dose: 100.0 mg/kg/injection, schedule: Q01DX005 (ip), vehicle: distilled water + Tween-80 + alcohol) was 115 % of control.

In the case of `O=C1N(c2ccccc2)C(=O)N1c1ccccc1`, the T/C (dose: 25.0 mg/kg/injection, schedule: Q01DX009 (ip), vehicle: saline with Tween-80) is reported as 93 % of control, the T/C [4] is reported as 99 % of control and the T/C [5] is reported as 108 % of control. The T/C [6] was 97 % of control.

In the case of `Clc1nc2n[nH]nc2nc1Cl`, the T/C (dose: 3.13 mg/kg/injection, schedule: Q04DX003 (ip), vehicle: saline) is reported as 100 % of control, the T/C (dose: 6.25 mg/kg/injection, schedule: Q04DX003 (ip), vehicle: saline) is reported as 90 % of control and the T/C (dose: 12.5 mg/kg/injection, schedule: Q04DX003 (ip), vehicle: saline) is reported as 95 % of control.

In the case of `OCC1(CO)COC2(CCCCC2)N1`, the T/C [1] is reported as 107 % of control, the T/C [7] is reported as 101 % of control and 120 % of control and the T/C [8] is reported as 100 % of control and 124 % of control.

For `c1ccc2c(-c3nccc4ccccc34)nccc2c1`, the T/C [2] was 99 % of control, the T/C [3] was 103 % of control and the T/C [9] was 92 % of control.

With `COc1ccc(C2C3C(=O)OCCOC(=O)C3C2c2ccc(OC)c(OC)c2)cc1OC` (centres undefined) the T/C [2] was 99 % of control, the T/C [3] was 104 % of control and the T/C [9] was 99 % of control.

`Cc1nnc(Cl)c(C#N)c1C` was tested, and the T/C [10] was 104 % of control, the T/C [11] was 92 % of control and the T/C [12] was 95 % of control.

In the case of `N#CC(C#N)=C(O)/C(=C/c1ccccc1[N+](=O)[O-])NC(=O)c1ccccc1`, the T/C [13] is reported as 106 % of control, the T/C [14] is reported as 104 % of control and the T/C [15] is reported as 92 % of control.

With `CC(=O)N(C)c1ccc2c(c1)C(=O)c1ccccc1-2` the T/C [2] was 102 % of control, the T/C [3] was 95 % of control and the T/C [9] was 92 % of control.

With `CCCn1c(O)c(C=N)c(=O)n(CCC)c1=O` the T/C [5] was 95 % of control, the T/C [6] was 100 % of control and the T/C (dose: 400.0 mg/kg/injection, schedule: Q01DX009 (ip), vehicle: saline with Tween-80) was 100 % of control.

For `CCCCCCCCN1C(=O)c2ccccc2C1=O`, the T/C (dose: 25.0 mg/kg/injection, schedule: Q01DX009 (ip), vehicle: other) was 109 % of control, the T/C (dose: 50.0 mg/kg/injection, schedule: Q01DX009 (ip), vehicle: other) was 103 % of control and the T/C (dose: 100.0 mg/kg/injection, schedule: Q01DX009 (ip), vehicle: other) was 109 % of control. The T/C (dose: 200.0 mg/kg/injection, schedule: Q01DX009 (ip), vehicle: other) was 98 % of control.

For `C=CC1=C(C)C2=NC1=CC1=NC(=CC3=C(C)C4=C(O)C(C(=O)OC)C(=C5NC(=C2)C(C)C5CCC(=O)OC/C=C(\C)CCCC(C)CCCC(C)CCCC(C)C)C4=N3)C(CC)=C1C` (centres undefined), the T/C [2] was 90 % of control, the T/C [3] was 92 % of control and the T/C [9] was 92 % of control.

`Fc1ccc(N2C(c3ccccc3)=N[C@@H](N3CCCCC3)[C@@H]2N2CCCCC2)cc1` was tested, and the T/C [10] was 102 % of control, the T/C [11] was 99 % of control and the T/C [12] was 100 % of control.

In the case of `Cc1ccccc1N1CC2CC3C=CC2(C1)O3` (centres undefined), the T/C [13] is reported as 104 % of control, the T/C [14] is reported as 97 % of control and the T/C [15] is reported as 97 % of control.

`CCCCCC(=O)C(C)C1(C(=O)OC)NC(=S)NC(=O)C1C#N` (centres undefined) was tested, and the T/C [16] was 105 % of control, the T/C [17] was 98 % of control and the T/C [18] was 97 % of control.

`COc1ccc(Cl)c2c1C(=O)C1C(=O)C3C(O)=C(C(=O)NC(C)(C)C)C(=O)C(NC(=O)c4ccccc4)C3CC1C2` (centres undefined) was tested, and the T/C [16] was 97 % of control, the T/C [17] was 116 % of control and the T/C [18] was 190 % of control.

For `N#CC1(NO)CCCC1`, the T/C [1] was 94 % of control, the T/C [7] was 98 % of control and the T/C [8] was 89 % of control.

In the case of `CCCC1c2c(ccc3c2OCO3)CC[N+]1(C)CCN(CC)CC` (centres undefined), the T/C (dose: 6.25 mg/kg/injection, schedule: Q01DX005 (ip), vehicle: saline with Tween-80) is reported as 109 % of control, the T/C (dose: 12.5 mg/kg/injection, schedule: Q01DX005 (ip), vehicle: saline with Tween-80) is reported as 98 % of control and the T/C (dose: 25.0 mg/kg/injection, schedule: Q01DX005 (ip), vehicle: saline with Tween-80) is reported as 100 % of control and 105 % of control.

For `Clc1ccc2c(c1)nc(-c1ccccn1)n2CCc1ccccn1`, the T/C (dose: 25.0 mg/kg/injection, schedule: Q01DX005 (ip), vehicle: Klucel (hydroxypropylcellulose) (HPC)) was 99 % of control, the T/C [10] was 104 % of control and the T/C [11] was 101 % of control. The T/C [12] was 93 % of control.

`CSC(SC)(C(=O)O)c1cc(-c2c(Cl)cccc2Cl)no1` was tested, and the T/C [13] was 93 % of control and the T/C [14] was 102 % of control.

For `Fc1ccc(NC(=S)SCc2ccccc2)cc1`, the T/C (dose: 50.0 mg/kg/injection, schedule: Q01DX009 (ip), vehicle: suspension in saline) was 101 % of control, the T/C (dose: 100.0 mg/kg/injection, schedule: Q01DX009 (ip), vehicle: suspension in saline) was 101 % of control and the T/C (dose: 200.0 mg/kg/injection, schedule: Q01DX009 (ip), vehicle: suspension in saline) was 101 % of control.

With `CN1CCN(c2ccncc2S(=O)(=O)N2CCN(C)CC2)CC1` the T/C [1] was 97 % of control, the T/C [7] was 97 % of control and the T/C [8] was 87 % of control.

With `CN1C=CC2C(C(=O)O)CC2C1=O` (centres undefined) the T/C (dose: 100.0 mg/kg/injection, schedule: Q04DX002 (ip), vehicle: saline) was 99 % of control, the T/C (dose: 200.0 mg/kg/injection, schedule: Q04DX002 (ip), vehicle: saline) was 115 % of control and the T/C (dose: 400.0 mg/kg/injection, schedule: Q04DX002 (ip), vehicle: saline) was 109 % of control.

With `CC1=CC(OC(C)C)OC1=O` (centres undefined) the T/C (dose: 50.0 mg/kg/injection, schedule: Q01DX005 (ip), vehicle: saline) was 108 % of control, the T/C (dose: 100.0 mg/kg/injection, schedule: Q01DX005 (ip), vehicle: saline) was 110 % of control and the T/C (dose: 200.0 mg/kg/injection, schedule: Q01DX005 (ip), vehicle: saline) was 110 % of control.

In the case of `CSCNC(=S)Nc1ccc(Cl)c(Cl)c1`, the T/C [4] is reported as 100 % of control and the T/C [5] is reported as 107 % of control.

`CC[C@H](C)[C@H](NC(=O)OC(C)(C)C)C(=O)ON1C(=O)CCC1=O` was tested, and the T/C [2] was 109 % of control, the T/C [3] was 113 % of control and the T/C [9] was 109 % of control.

With `COc1cc(N)c(C)c2c(C)ccnc12` the T/C (dose: 30.0 mg/kg/injection, schedule: Q01DX005 (ip), vehicle: Klucel (hydroxypropylcellulose) (HPC)) was 106 % of control and the T/C [16] was 92 % of control and 97 % of control.

In the case of `CC(C)=N/N=C(/N)[Se]`, the T/C (dose: 3.12 mg/kg/injection, schedule: Q01DX009 (ip), vehicle: saline with Tween-80) is reported as 95 % of control, the T/C (dose: 6.25 mg/kg/injection, schedule: Q01DX009 (ip), vehicle: saline with Tween-80) is reported as 103 % of control and the T/C (dose: 12.5 mg/kg/injection, schedule: Q01DX009 (ip), vehicle: saline with Tween-80) is reported as 97 % of control.
